Measurements as given in ChEMBL document CHEMBL1201862, “PubChem BioAssay data set” (2004).
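A five-concentration, 48-hour dose response in 96-well plates underlies each endpoint, interpolated linearly between surrounding concentrations. GI50 marks 50% less growth.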 The source made the active and inactive calls. No stated cut-off is given here; in the data, active = GI50 up to about 1.1 µM and inactive = higher.

Key:
Assay in all cases: NCI-60 cell line screen, 48 h
Hs-578T = tested on: Hs-578T
HL-60 = tested on: HL-60
IGROV-1 = tested on: IGROV-1
HCT-116 = tested on: HCT-116
MDA-N = tested on: MDA-N
KM12 = tested on: KM12
SK-OV-3 = tested on: SK-OV-3
SK-MEL-5 = tested on: SK-MEL-5
HOP-92 = tested on: HOP-92
SF-295 = tested on: SF-295
NCI/ADR-RES = tested on: NCI/ADR-RES
COLO 205 = tested on: COLO 205
A498 = tested on: A498
HCT-15 = tested on: HCT-15
HT-29 = tested on: HT-29
UACC-257 = tested on: UACC-257
OVCAR-3 = tested on: OVCAR-3
OVCAR-5 = tested on: OVCAR-5
MDA-MB-435 = tested on: MDA-MB-435
SF-539 = tested on: SF-539
SK-MEL-28 = tested on: SK-MEL-28
BT-549 = tested on: BT-549
EKVX = tested on: EKVX
OVCAR-4 = tested on: OVCAR-4
SK-MEL-2 = tested on: SK-MEL-2
MCF7 = tested on: MCF7
CCRF-CEM = tested on: CCRF-CEM
Malme-3M = tested on: Malme-3M
M14 = tested on: M14
DU-145 = tested on: DU-145
T47D = tested on: T47D
SW-620 = tested on: SW-620
SN12C = tested on: SN12C
A549 = tested on: A549
LOX IMVI = tested on: LOX IMVI
HOP-62 = tested on: HOP-62
NCI-H23 = tested on: NCI-H23
MOLT-4 = tested on: MOLT-4
UACC-62 = tested on: UACC-62
SR = tested on: SR
OVCAR-8 = tested on: OVCAR-8
UO-31 = tested on: UO-31
MDA-MB-231 = tested on: MDA-MB-231
786-0 = tested on: 786-0
SF-268 = tested on: SF-268
ACHN = tested on: ACHN
RXF 393 = tested on: RXF 393
RPMI-8226 = tested on: RPMI-8226
CAKI-1 = tested on: CAKI-1
TK-10 = tested on: TK-10
PC-3 = tested on: PC-3
U-251 = tested on: U-251
NCI-H460 = tested on: NCI-H460
NCI-H522 = tested on: NCI-H522
SNB-75 = tested on: SNB-75
NCI-H226 = tested on: NCI-H226
K562 = tested on: K562
SNB-19 = tested on: SNB-19

For `Cc1ncc([N+](=O)[O-])n1CCNS(=O)(=O)CCCn1ccnc1[N+](=O)[O-]`, the GI50 (Hs-578T) was > 100 µM (inactive), the GI50 (HL-60) was > 100 µM (inactive) and the GI50 (IGROV-1) was > 100 µM (inactive). The GI50 (HCT-116) was > 100 µM (inactive), the GI50 (MDA-N) was > 100 µM (inactive) and the GI50 (KM12) was > 100 µM (inactive). The GI50 (SK-OV-3) was > 100 µM (inactive), the GI50 (SK-MEL-5) was > 100 µM (inactive) and the GI50 (HOP-92) was > 100 µM (inactive). For the same compound, the GI50 (SF-295) was > 100 µM (inactive), the GI50 (NCI/ADR-RES) was > 100 µM (inactive) and the GI50 (COLO 205) was > 100 µM (inactive). The GI50 (A498) was > 100 µM (inactive), the GI50 (HCT-15) was over 100 µM and the GI50 (HT-29) was > 100 µM (inactive). For the same compound, the GI50 (UACC-257) was > 100 µM (inactive), the GI50 (OVCAR-3) was > 100 µM (inactive) and the GI50 (OVCAR-5) was > 100 µM (inactive). The GI50 (MDA-MB-435) was > 100 µM (inactive), the GI50 (SF-539) was > 100 µM (inactive) and the GI50 (SK-MEL-28) was > 100 µM (inactive). The GI50 (BT-549) was > 100 µM (inactive), the GI50 (EKVX) was > 100 µM (inactive) and the GI50 (OVCAR-4) was > 100 µM (inactive). For the same compound, the GI50 (SK-MEL-2) was > 100 µM (inactive), the GI50 (MCF7) was > 100 µM (inactive) and the GI50 (CCRF-CEM) was > 100 µM (inactive). The GI50 (Malme-3M) was > 100 µM (inactive), the GI50 (M14) was > 100 µM (inactive) and the GI50 (DU-145) was > 100 µM (inactive). The GI50 (T47D) was > 100 µM (inactive), the GI50 (SW-620) was > 100 µM (inactive) and the GI50 (SN12C) was > 100 µM (inactive). For the same compound, the GI50 (A549) was > 100 µM (inactive), the GI50 (LOX IMVI) was > 100 µM (inactive) and the GI50 (HOP-62) was > 100 µM (inactive). For the same compound, the GI50 (NCI-H23) was > 100 µM (inactive), the GI50 (MOLT-4) was > 100 µM (inactive) and the GI50 (UACC-62) was > 100 µM (inactive). The GI50 (SR) was > 100 µM (inactive), the GI50 (OVCAR-8) was > 100 µM (inactive) and the GI50 (UO-31) was > 100 µM (inactive). For the same compound, the GI50 (MDA-MB-231) was > 100 µM (inactive), the GI50 (786-0) was > 100 µM (inactive) and the GI50 (SF-268) was > 100 µM (inactive). For the same compound, the GI50 (ACHN) was > 100 µM (inactive), the GI50 (RXF 393) was > 100 µM (inactive) and the GI50 (RPMI-8226) was > 100 µM (inactive). For the same compound, the GI50 (CAKI-1) was > 100 µM (inactive), the GI50 (TK-10) was > 100 µM (inactive) and the GI50 (PC-3) was > 100 µM (inactive). The GI50 (U-251) was > 100 µM (inactive), the GI50 (NCI-H460) was > 100 µM (inactive) and the GI50 (NCI-H522) was > 100 µM (inactive). For the same compound, the GI50 (SNB-75) was > 100 µM (inactive), the GI50 (NCI-H226) was > 100 µM (inactive) and the GI50 (K562) was > 100 µM (inactive).
In the case of `Cc1cc2ccc(OC(=O)c3ccc(NC(=N)N)cc3)cc2oc1=O`, the GI50 (Hs-578T) is reported as 25.9 µM (inactive), the GI50 (HL-60) is reported as 5.93 µM (inactive) and the GI50 (IGROV-1) is reported as 55 µM (inactive). For the same compound, the GI50 (HCT-116) was 24.1 µM (inactive), the GI50 (MDA-N) was 29.2 µM (inactive) and the GI50 (KM12) was 21.7 µM (inactive). The GI50 (SK-OV-3) was 19.1 µM (inactive), the GI50 (SK-MEL-5) was 43.8 µM (inactive) and the GI50 (HOP-92) was 41.6 µM (inactive). For the same compound, the GI50 (SF-295) was 46.5 µM (inactive), the GI50 (NCI/ADR-RES) was > 100 µM (inactive) and the GI50 (COLO 205) was 23.7 µM (inactive). The GI50 (A498) was 21.2 µM (inactive), the GI50 (HCT-15) was over 100 µM and the GI50 (HT-29) was 26.6 µM (inactive). The GI50 (UACC-257) was 35.2 µM (inactive), the GI50 (OVCAR-3) was 16.5 µM (inactive) and the GI50 (OVCAR-5) was 34.3 µM (inactive). For the same compound, the GI50 (MDA-MB-435) was 20 µM (inactive), the GI50 (SF-539) was 24.5 µM (inactive) and the GI50 (SK-MEL-28) was 24 µM (inactive). The GI50 (BT-549) was 26.3 µM (inactive), the GI50 (EKVX) was 30.5 µM (inactive) and the GI50 (OVCAR-4) was 16.6 µM (inactive). For the same compound, the GI50 (SK-MEL-2) was 25.4 µM (inactive), the GI50 (MCF7) was 22.1 µM (inactive) and the GI50 (SNB-19) was 22.2 µM (inactive). The GI50 (CCRF-CEM) was 30.5 µM (inactive), the GI50 (Malme-3M) was 22 µM (inactive) and the GI50 (M14) was 28.8 µM (inactive). For the same compound, the GI50 (DU-145) was 76.9 µM (inactive), the GI50 (T47D) was 26.8 µM (inactive) and the GI50 (SW-620) was 24.7 µM (inactive). The GI50 (SN12C) was 23.6 µM (inactive), the GI50 (A549) was 36.2 µM (inactive) and the GI50 (LOX IMVI) was 30.8 µM (inactive). The GI50 (HOP-62) was 18.7 µM (inactive), the GI50 (NCI-H23) was 21.3 µM (inactive) and the GI50 (MOLT-4) was 22.9 µM (inactive). For the same compound, the GI50 (UACC-62) was 26.9 µM (inactive), the GI50 (SR) was 22.5 µM (inactive) and the GI50 (OVCAR-8) was 33.3 µM (inactive). For the same compound, the GI50 (UO-31) was 52.4 µM (inactive), the GI50 (MDA-MB-231) was 22 µM (inactive) and the GI50 (786-0) was 25.1 µM (inactive). For the same compound, the GI50 (SF-268) was 25.2 µM (inactive), the GI50 (ACHN) was > 100 µM (inactive) and the GI50 (RXF 393) was 33.3 µM (inactive). For the same compound, the GI50 (RPMI-8226) was 22.2 µM (inactive), the GI50 (CAKI-1) was 43.5 µM (inactive) and the GI50 (TK-10) was 22.5 µM (inactive). The GI50 (PC-3) was 28.6 µM (inactive), the GI50 (U-251) was 21.6 µM (inactive) and the GI50 (NCI-H460) was 31.4 µM (inactive). The GI50 (NCI-H522) was 18.3 µM (inactive), the GI50 (SNB-75) was 23.3 µM (inactive) and the GI50 (NCI-H226) was 26.4 µM (inactive). The GI50 (K562) was 25.6 µM (inactive).
